Measurements reported in BindingDB's records for patent US11896597 (Dizal (Jiangsu) Pharmaceutical, 2024).
pIC50: −log10 of the molar value.

Columns and labels:
[1] = biological target: Epidermal growth factor receptor (Homo sapiens, UniProt P00533); assay: Potency Assessment EGFR (WT) and EGFR Mutants
Procedure: (§1) The next day, tested compounds at a series of concentrations were added into each individual well of the plates, and the plates were incubated for 4 h at 37 C. with 5% CO2. […] The assay is an electrochemiluminescent method for determining both phosphorylated and total EGFR of cells with an MSD SECTOR Imager and the ratio of p-EGFR/total EGFR can be generated by the machine. The Her2 (Y1248) phosphorylation level (activity) of cells in each well were measured with MSD Kit named Phospho-ErbB2 (Tyr1248) Assay Whole Cell Lysate Kit according to the manufacturer's instruction (MESO SCALE DISCOVERY, Cat #K151CLD-3). The assay is an electrochemiluminescent method (MESO SCALE DISCOVERY) for determining both phosphorylated and total Her2 of cells with an MSD SECTOR Imager and then the ratio of p-Her2/total Her2 can be generated by the machine.

[2] = biological target: Epidermal growth factor receptor [T790M,L858R] (Homo sapiens, UniProt P00533, L858R/T790M); assay: Potency Assessment EGFR (WT) and EGFR Mutants
Sequence of Epidermal growth factor receptor [T790M,L858R] (P00533 25-1210 T790M/L858R limits assumed): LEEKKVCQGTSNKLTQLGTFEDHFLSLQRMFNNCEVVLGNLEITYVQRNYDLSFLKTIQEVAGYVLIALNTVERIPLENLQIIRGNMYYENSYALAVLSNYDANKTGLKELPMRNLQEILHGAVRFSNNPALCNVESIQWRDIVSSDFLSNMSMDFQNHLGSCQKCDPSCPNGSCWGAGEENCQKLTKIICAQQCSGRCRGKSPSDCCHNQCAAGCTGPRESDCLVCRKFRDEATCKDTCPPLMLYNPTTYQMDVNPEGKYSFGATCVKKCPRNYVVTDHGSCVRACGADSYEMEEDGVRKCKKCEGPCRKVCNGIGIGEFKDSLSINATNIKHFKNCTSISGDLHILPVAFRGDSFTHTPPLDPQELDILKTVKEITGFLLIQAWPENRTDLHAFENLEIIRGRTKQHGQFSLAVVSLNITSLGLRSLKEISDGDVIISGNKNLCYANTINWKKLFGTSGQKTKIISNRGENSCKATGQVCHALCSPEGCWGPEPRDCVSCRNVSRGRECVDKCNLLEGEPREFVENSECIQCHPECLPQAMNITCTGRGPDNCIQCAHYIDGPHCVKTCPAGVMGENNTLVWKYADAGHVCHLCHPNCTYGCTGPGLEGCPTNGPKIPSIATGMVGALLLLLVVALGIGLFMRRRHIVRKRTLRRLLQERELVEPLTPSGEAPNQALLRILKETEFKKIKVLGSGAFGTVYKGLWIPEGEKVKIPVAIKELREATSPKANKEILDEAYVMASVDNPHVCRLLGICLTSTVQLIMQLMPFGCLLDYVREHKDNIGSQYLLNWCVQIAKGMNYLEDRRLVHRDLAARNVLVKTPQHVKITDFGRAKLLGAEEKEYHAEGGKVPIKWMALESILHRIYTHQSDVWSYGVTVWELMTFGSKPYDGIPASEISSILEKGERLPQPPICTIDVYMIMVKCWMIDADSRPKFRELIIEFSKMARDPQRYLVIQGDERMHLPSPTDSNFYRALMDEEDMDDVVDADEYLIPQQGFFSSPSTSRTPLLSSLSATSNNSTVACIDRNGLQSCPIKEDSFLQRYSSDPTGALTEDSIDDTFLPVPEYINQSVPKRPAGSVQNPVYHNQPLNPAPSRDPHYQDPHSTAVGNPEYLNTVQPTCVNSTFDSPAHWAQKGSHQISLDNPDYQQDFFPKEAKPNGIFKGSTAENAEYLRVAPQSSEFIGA
Procedure: as §1

Sequence of Epidermal growth factor receptor (P00533 whole entry): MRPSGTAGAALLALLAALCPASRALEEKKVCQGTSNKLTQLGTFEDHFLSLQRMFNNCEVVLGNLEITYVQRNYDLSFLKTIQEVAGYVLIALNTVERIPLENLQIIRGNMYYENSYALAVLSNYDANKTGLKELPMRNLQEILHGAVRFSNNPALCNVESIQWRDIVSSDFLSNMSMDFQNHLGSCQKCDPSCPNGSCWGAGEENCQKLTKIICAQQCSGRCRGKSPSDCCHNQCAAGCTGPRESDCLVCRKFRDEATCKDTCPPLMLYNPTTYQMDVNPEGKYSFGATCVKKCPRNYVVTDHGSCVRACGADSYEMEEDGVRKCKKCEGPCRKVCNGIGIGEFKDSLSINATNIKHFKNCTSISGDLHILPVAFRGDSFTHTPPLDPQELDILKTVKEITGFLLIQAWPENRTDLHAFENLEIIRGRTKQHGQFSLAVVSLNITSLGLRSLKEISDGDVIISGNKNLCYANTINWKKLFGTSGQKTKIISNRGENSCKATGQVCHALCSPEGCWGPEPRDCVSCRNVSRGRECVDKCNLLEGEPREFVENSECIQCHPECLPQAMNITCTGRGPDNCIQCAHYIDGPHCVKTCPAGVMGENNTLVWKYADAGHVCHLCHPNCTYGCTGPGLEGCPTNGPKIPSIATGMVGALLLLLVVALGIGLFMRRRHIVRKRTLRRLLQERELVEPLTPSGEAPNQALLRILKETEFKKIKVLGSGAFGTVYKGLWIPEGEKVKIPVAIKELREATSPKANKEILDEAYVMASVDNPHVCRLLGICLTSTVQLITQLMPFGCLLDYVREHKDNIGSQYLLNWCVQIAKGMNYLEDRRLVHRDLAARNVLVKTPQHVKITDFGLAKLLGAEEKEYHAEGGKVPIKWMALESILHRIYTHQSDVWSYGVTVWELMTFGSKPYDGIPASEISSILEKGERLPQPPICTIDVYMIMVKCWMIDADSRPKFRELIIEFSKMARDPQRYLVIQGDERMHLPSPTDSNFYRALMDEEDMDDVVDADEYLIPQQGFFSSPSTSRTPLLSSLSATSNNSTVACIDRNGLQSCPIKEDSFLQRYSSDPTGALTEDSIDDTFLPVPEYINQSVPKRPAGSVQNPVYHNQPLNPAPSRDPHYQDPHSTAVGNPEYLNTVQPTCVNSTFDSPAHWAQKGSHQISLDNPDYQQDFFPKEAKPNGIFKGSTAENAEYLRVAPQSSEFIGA

Structure (SMILES)	pIC50 [1]	pIC50 [2]
C=CC(=O)Nc1cc(Nc2ncnc(Nc3cnc(C)cc3C(C)(C)O)n2)c(OC)cc1N(C)CCN(C)C [US11896597, Compound 6]	6.99	8.08
C=CC(=O)Nc1cc(Nc2nccc(Nc3cc(Cl)c(F)cc3C(C)(C)O)n2)c(OC)cc1N(C)C[C@H]1C[C@H](C)CN1C [US11896597, Compound 90]	6.45	8.85

Further compounds by rising pIC50 [1], results first:

pIC50 [1]	pIC50 [2]	Structure (SMILES)
6.98	9.00	C=CC(=O)Nc1cc(Nc2ncnc(Nc3cc(F)c(F)cc3C(C)(C)O)n2)c(OC)cc1N(C)CCN1CCCCC1 [US11896597, Compound 24]
7.06	8.77	C=CC(=O)Nc1cc(Nc2ncnc(Nc3ccc(C)nc3C(C)(C)O)n2)c(OC)cc1N(C)CCN(C)C [US11896597, Compound 7]
7.20	8.59	C=CC(=O)Nc1cc(Nc2ncnc(Nc3ccccc3C3(O)COC3)n2)c(OC)cc1N(C)CCN(C)C [US11896597, Compound 10]
7.69	8.96	C=CC(=O)Nc1cc(Nc2ncnc(Nc3ccc(C(F)(F)F)cc3C(C)(C)O)n2)c(OC)cc1N(C)CCN(C)C [US11896597, Compound 13]
